Laboratory results reported in patent publication US20040047804A1, “Enhanced radiation therapy” (The General Hospital Corporation, a Massachusetts …, priority 1998, published 2004).
Read-outs that look alike come from different tables or passages of the source.

Legend:
[1] = test system: V79 Chinese Hamster Ovary cancer cells; test: In vitro radiation enhancement, survival of irradiated tumor cells; format: cell-based; details: radiation dosage of 9.0 Gy
Description: The effect of the new radiodense compositions on cancer cells was also studied in vitro. Individual V79 Chinese Hamster Ovary cancer cells were suspended in nutrient medium in test tubes and mixed with a sufficient amount of one of several new radiodense compositions to increase the radiodensity of the cell suspension. […] At a radiation energy level of 12 Gy, about 8×10^-1 cells survived in the nutrient medium alone, while only 1×10^-3 to 1×10^-4 survived in the presence of the radiodense materials.

[2] = test system: VX2 tumors
Description: About […] of either a small molecule radiodense material (iohexol) or a large molecule radiodense material (WIN 8883) was injected directly into separate VX2 tumors growing in the thigh of a rabbit. To measure the diffusion time of the two materials in the tumor interstitium, the rabbit was euthanized and the corpus imaged using CT over the next 24 hours to measure the spatial and temporal distribution of each material.

[3] = test system: human adenocarcinomas (LS 174T); parameters: species or system mice; details: mouse, in vivo
Description: Immunologically tolerant mice were implanted with several different human neoplasms. When the tumors reached a size of 1-2 cm, radiodense compositions were injected intratumorally via a percutaneous route using a 27 gauge needle. The mice and their tumors where then serially imaged with computed tomography to determine the local pharmacokinetics of the injectates by measuring the x-ray attenuation (in HU) of regions of interest.
FIG. 3 is a plot of the temporal change of x-ray attenuation in a mouse bearing a human adenocarcinomas (LS 174T). The radiodense material was a water soluble, small molecule radiodense material (Omnipaque™ with a concentration of 350 mg I/ml as iohexol). A peak contrast of nearly 3000 HU was attained in the center of the tumor, with smaller degrees of contrast enhancement surrounding the injected area. This small molecule was rapidly cleared with values of only 2000 HU at the peak location 60 minutes later.

[4] = test system: VX2 tumors; test: In vivo radiation enhancement, systemic radiodense material plus internal radiation probe; parameters: species or system rabbit; details: systemic bolus 3 ml/kg
Description: Three rabbits with VX2 tumors growing in the thigh were used to evaluate the radiation therapy effect of the new radiodense compositions and radiation administered internally. In the first rabbit, iohexol was injected systemically as a bolus in a volume of 3 ml/kg, resulting in a peak enhancement of the leaky edge of the tumor by over 50 HU. Radiation of 30 Gy was administered over 45 minutes using a delivery energy of 40 Kev from the probe tip, which was centered in the tumor. The next day, the rabbit was euthanized following the administration of Evans Blue to demarcate the leaky vasculature of the treated tumor as well as an untreated, control tumor in the opposite thigh. […] All of the viable cells were located in the edge of the treated tumor and this edge of viable cells was much smaller than the rim of viable cells in the untreated tumor. Two additional rabbits were treated with a nearly identical protocol, except that the same radiodense material was given as an intravenous bolus plus a sustaining infusion to keep the leaky portions of the tumor enhanced for the entire duration of the radiation treatment. In these two experiments, no evidence of viable tumor was seen on serial computed tomography studies over the next several days. […]

x-ray attenuation at the peak location 60 minutes later [3] [HU] | peak enhancement of the leaky edge of the tumor [4] | Structure (SMILES) | relative effectiveness among the radiodense materials [1] | Volume (total number of intratumoral voxels containing at least 200 HU) ([2]; 1.5 Hrs) [voxels] | Volume (total number of intratumoral voxels containing at least 200 HU) ([2]; 4.5 Hrs) [voxels] | Volume (total number of intratumoral voxels containing at least 200 HU) ([2]; 21.0 Hrs) [voxels] | Volume (total number of intratumoral voxels containing at least 200 HU) ([2]; Initial) [voxels] | necrosis of viable tumor cells in the treated leg, compared with the control ([4]; 30 Gy over 45 minutes at 40 Kev from probe centered in tumor, histology next day)
– | – | CC(=O)N(CC(O)CN(C(C)=O)c1c(I)c(C(=O)NCC(O)CO)c(I)c(C(=O)NCC(O)CO)c1I)c1c(I)c(C(=O)NCC(O)CO)c(I)c(C(=O)NCC(O)CO)c1I (stereo not drawn) [iodix, iodixanol] | more effective | – | – | – | – | –
– | – | CCOC(=O)c1c(I)c(NC(C)=O)c(I)c(NC(C)=O)c1I [Win 8883, ethyl-bis(3,5-acetylamino)-2,4,6-triiodobenzoate] | – | 10898 | 11826 | 11682 | 10420 | –
2000 | over 50 HU | CC(=O)N(CC(O)CO)c1c(I)c(C(=O)NCC(O)CO)c(I)c(C(=O)NCC(O)CO)c1I (stereo not drawn) [iohexol] | – | 23912 | 22104 | 44720 | 12722 | about 95%
